Activity calls are given as the source filed them. The rule behind the calls is not given here.
Assays:
[1] = (§1) Hepatotoxicity in Balb/c mouse infected with Trypanosoma cruzi MHOM/Pe/2011/Arequipa DTU 5 trypomastigotes assessed as change in alkaline phosphatase level at 20 mg/kg, po once daily for 5 consecutive days starting from day 10 post infection measured on day 127 post infection by biochemical analysis (reference value: 161 U/L); format: toxicity, organism-based; conditions: in vivo
[2] = as §1, with “ratio of serum ALT to GPT” for “alkaline phosphatase”, “75” for “10”, “infection” for “infection by biochemical analysis”, “64” for “161”; format: toxicity, organism-based; conditions: in vivo
[3] = Hepatotoxicity in Balb/c mouse infected with Trypanosoma cruzi MHOM/Pe/2011/Arequipa DTU 5 trypomastigotes assessed as increase in total bilirubin level at 20 mg/kg, po once daily for 5 consecutive days starting from day 75 post infection measured on day 81 post infection relative to control; format: toxicity, organism-based; conditions: in vivo
[4] = Cardiotoxicity in Balb/c mouse infected with Trypanosoma cruzi MHOM/Pe/2011/Arequipa DTU 5 trypomastigotes assessed as decrease in serum LDH level at 20 mg/kg, po once daily for 5 consecutive days starting from day 75 post infection measured on day 81 post infection relative to control; format: toxicity, organism-based; parameters: scale not given: the % may be the effect or the level left; conditions: in vivo
[5] = Nephrotoxicity in Balb/c mouse infected with Trypanosoma cruzi MHOM/Pe/2011/Arequipa DTU 5 trypomastigotes assessed as decrease in serum urea level at 20 mg/kg, po once daily for 5 consecutive days starting from day 10 post infection measured on day 127 post infection relative to control; format: toxicity, organism-based; parameters: scale not given: the % may be the effect or the level left; conditions: in vivo
[6] = tested on: Trypanosoma cruzi; assay: (§2) Antitrypanosomal activity against Trypanosoma cruzi MHOM/Pe/2011/Arequipa DTU 5 trypomastigotes infected in Balb/c mouse assessed as parasite-free adipose tissue at 20 mg/kg, po pretreated once daily for 5 consecutive days starting from day 75 post infection followed by cyclophosphamide-induced immunosuppression on day 100 post infection every 4 days for a maximum of 3 doses measured on day 127 post infection by PCR method; format: functional
[7] = as §1, with “Cardiotoxicity” for “Hepatotoxicity”, “serum LDH” for “alkaline phosphatase”, “16” for “127”, “3275” for “161”; format: toxicity, organism-based; conditions: in vivo
[8] = Toxicity in Balb/c mouse assessed as reduction in body mass at 20 mg/kg, po once daily for 5 consecutive days starting from day 10 post infection relative to control; format: organism-based; parameters: scale not given: the % may be the effect or the level left; conditions: in vivo
[9] = Nephrotoxicity in Balb/c mouse infected with Trypanosoma cruzi MHOM/Pe/2011/Arequipa DTU 5 trypomastigotes assessed as change in serum urea level at 20 mg/kg, po once daily for 5 consecutive days starting from day 10 post infection measured on day 127 post infection (reference value: 31 mg/dl); format: toxicity, organism-based; conditions: in vivo
[10] = tested on: Trypanosoma cruzi; assay: Trypanocidal activity against Trypanosoma cruzi IRHOD/CO/2008/SN3 DTU 1 amastigotes infected in African green monkey Vero cells after 72 hrs by Giemsa-staining based microscopic assay; format: functional, organism-based; conditions: IRHOD/CO/2008/SN3 DTU 1, Vero
[11] = Selectivity index, ratio of IC50 for African green monkey Vero cells to IC50 for Trypanosoma cruzi TINF/CH/1956/Tulahuen DTU 6 amastigotes infected in African green monkey Vero cells; format: toxicity; conditions: read-out: Ratio IC50
[12] = (§3) Hepatotoxicity in Balb/c mouse infected with Trypanosoma cruzi MHOM/Pe/2011/Arequipa DTU 5 trypomastigotes assessed as decrease in ratio of serum AST to GOT level at 20 mg/kg, po once daily for 5 consecutive days starting from day 75 post infection measured on day 127 post infection relative to control; format: toxicity, organism-based; parameters: scale not given: the % may be the effect or the level left; conditions: in vivo
[13] = Hepatotoxicity in Balb/c mouse infected with Trypanosoma cruzi MHOM/Pe/2011/Arequipa DTU 5 trypomastigotes assessed as change in total bilirubin level at 20 mg/kg, po once daily for 5 consecutive days starting from day 75 post infection measured on day 127 post infection (reference value: 0.2 mg/dl); format: toxicity, organism-based; conditions: in vivo
[14] = tested on: Trypanosoma cruzi; assay: Antitrypanosomal activity against Trypanosoma cruzi MHOM/Pe/2011/Arequipa DTU 5 epimastigotes assessed as effect on parasite glycolytic pathway by measuring decrease in pyruvate excretion at IC25 after 72 hrs by 1H NMR method; format: functional, organism-based
[15] = tested on: Trypanosoma cruzi; assay: as §2, with “reduction in Ig-G level in serum” for “parasite-free adipose tissue”, “10” for “75”, “ELISA” for “PCR method”; format: functional, organism-based
[16] = tested on: Trypanosoma cruzi; assay: as §2, with “spleen” for “adipose tissue”; format: functional, organism-based
[17] = tested on: Trypanosoma cruzi; assay: as §2, with “heart” for “adipose tissue”; format: functional, organism-based
[18] = tested on: Trypanosoma cruzi; assay: Antitrypanosomal activity against Trypanosoma cruzi MHOM/Pe/2011/Arequipa DTU 5 trypomastigotes infected in Balb/c mouse assessed as reduction in Ig-G level in serum at 20 mg/kg, po once daily for 5 consecutive days starting from day 10 post infection measured on day 100 post infection by ELISA; format: functional, organism-based
[19] = Selectivity index, ratio of IC50 for African green monkey Vero cells to IC50 for Trypanosoma cruzi MHOM/Pe/2011/Arequipa DTU 5 epimastigotes; format: toxicity; conditions: read-out: Ratio IC50
[20] = Selectivity index, ratio of IC50 for African green monkey Vero cells to IC50 for Trypanosoma cruzi IRHOD/CO/2008/SN3 DTU 1 trypomastigotes derived from infected Balb/c albino mouse; format: toxicity; conditions: read-out: Ratio IC50
[21] = Hepatotoxicity in Balb/c mouse infected with Trypanosoma cruzi MHOM/Pe/2011/Arequipa DTU 5 trypomastigotes assessed as decrease in serum ALT to GPT level at 20 mg/kg, po once daily for 5 consecutive days starting from day 10 post infection measured on day 16 post infection relative to control; format: toxicity, organism-based; parameters: scale not given: the % may be the effect or the level left; conditions: in vivo
[22] = tested on: Trypanosoma cruzi; assay: as §2, with “brain” for “adipose tissue”; format: functional, organism-based
[23] = tested on: Trypanosoma cruzi; assay: as §2, with “oesophagus” for “adipose tissue”; format: functional, organism-based
[24] = tested on: Trypanosoma cruzi; assay: Trypanocidal activity against Trypanosoma cruzi MHOM/Pe/2011/Arequipa DTU 5 amastigotes infected in African green monkey Vero cells assessed as reduction in number of amastigotes per infected cells at log -0.41 to 1.7 after 72 hrs by Giemsa-staining based assay; format: functional, organism-based
[25] = as §3, with “increase” for “decrease”, “ALT” for “AST”, “GPT” for “GOT”; format: toxicity, organism-based; conditions: in vivo
[26] = Cardiotoxicity in Balb/c mouse infected with Trypanosoma cruzi MHOM/Pe/2011/Arequipa DTU 5 trypomastigotes assessed as change in serum LDH level at 20 mg/kg, po once daily for 5 consecutive days starting from day 75 post infection measured on day 81 post infection (reference value: 5951 U/L); format: toxicity, organism-based; conditions: in vivo
[27] = tested on: Trypanosoma cruzi; assay: Inhibition of Trypanosoma cruzi MHOM/Pe/2011/Arequipa DTU 5 epimastigotes Fe-SOD at 100 uM by UV-Visible spectrophotometric method relative to control
[28] = Hepatotoxicity in Balb/c mouse infected with Trypanosoma cruzi MHOM/Pe/2011/Arequipa DTU 5 trypomastigotes assessed as decrease in total bilirubin level at 20 mg/kg, po once daily for 5 consecutive days starting from day 75 post infection measured on day 127 post infection relative to control; format: toxicity, organism-based; parameters: scale not given: the % may be the effect or the level left; conditions: in vivo

SMILES | Activity [1] [U/L] | Activity [2] [U/L] | Activity [3] | Activity [4] | Activity [6] [%] | Activity [7] [U/L] | Activity [8] [%] | Activity [9] [mg/dL] | IC50 [10] [µM] | selectivity ratio [11] | Activity [14] | Activity [15] | Activity [18] | selectivity ratio [19] | selectivity ratio [20] | Activity [24] | also measured
O=C(Cn1ccnc1[N+](=O)[O-])NCc1ccccc1 [BENZNIDAZOLE] | 161 | 64 | <= 30% | <= 10% | 51.2 | 3275 | – | – | – | – | – | – | – | – | – | – | Activity [5]: <= 10%
Cl.Cl.Cl.NCCN(CCN)CCNCc1ccc2c(c1)Cc1ccccc1-2 | – | 64 | – | <= 10% | 16.3 | – | < 10 | 34 | 19.7 | 117 | Active | Active | Active | 66.3 | 142 | Active | Activity [12]: <= 10%; Activity [13]: 0.2 mg/dL; Activity [16]: Active; Activity [17]: Active; Activity [21]: <= 10%; Activity [22]: Active; Activity [23]: Active
Cl.Cl.Cl.Cl.Cl.Cl.c1ccc2nc(CNCCN(CCNCc3ccc4ccccc4n3)CCNCc3ccc4ccccc4n3)ccc2c1 | 161 | – | <= 30% | – | – | 3275 | < 10 | 34 | 1.6 | 707 | Active | inactive | inactive | 110 | 1560 | Active | Activity [25]: <= 10%; Activity [26]: 6679 U/L; inhibition [27]: 100%; Activity [28]: <= 10%
